The structures appear in SMILES notation.

From patent US8895547B2, “Substituted phenyl-oxathiazine derivatives, method for producing them, drugs containing said compounds and the use thereof” (Sanofi, priority 2011, dated 2014) come the findings set out here.

In this experiment the target is T1, human 11β-HSD1 (Homo sapiens, UniProt P28845).
T1 construct: host or cells: microsome fraction
The experiment can be described thus: Enzymatic 11beta-HSD1 test (SPA-based detection). To be noted: human 11β-HSD1 microsome fraction, [1,2-3H]-cortisone, NADPH, 37° C. 1 hour. It counts as biochemical. Here is the method: Enzymatic 11beta-HSD1 test:
To measure the activity of the compounds, an SPA-based detection method (Solly et al. 2005) was employed. First of all, 20 μl of the human 11β-HSD1 microsome fraction (0.2 μg of protein), prepared in 50 mM HEPES, 0.1% BSA (w/v), were applied to a plate with 384 wells. The test compounds (0.09 μl) were applied to the assay plate in 100% DMSO. The reaction was started by addition of 20 μl of [1,2-^3H]-cortisone (0.1 μCi/[…]) in assay buffer comprising 25 mM HEPES, 100 mM KCl, 5 mM NaCl, 2 mM MgCl2 and 0.25 mM NADPH. The plate was agitated at 37° C. for 1 hour. At the same time, a stop solution comprising 20 mg/ml SPA-PVT beads, 1.6 mg/ml monoclonal cortisol antibody and 0.01 mM SSR110887 (inhibitor from the Biovitrium patent) in 50 mM HEPES, 1 M NaCl and 1 M KCl was stirred at room temperature. To stop the reaction, 25 μl of the stop solution were added to each well. The plate was agitated gently at room temperature for 1 further hour and then centrifuged at 500 gav for 1 minute, in order that the SPA beads could settle out. The plate was then read in a Wallac-1450-Microbeta unit with a standard SPA program (counting time 1 min/well). The comparative compound was glycyrrhetinic acid.
Protein and radioactive substrate were dispensed with a Biomek FX unit (Beckman Coulter) for handling liquids. The test compounds were added with a Cybi-Well equipped with a 90 nl pin tool (CyBio).
Lit.: Solly S, Mundt S S, Zokian H J, Juy-Fang Ding G, Hermanowski-Vosatka A, Strulovici B and Zheng W. High-throughput screening of 11β-Hydroxysteroid dehydrogenase type 1 in scintillation proximity format. Assay Drug Dev Technol 2005; 3:377-384.

T1 sequence (P28845 whole entry): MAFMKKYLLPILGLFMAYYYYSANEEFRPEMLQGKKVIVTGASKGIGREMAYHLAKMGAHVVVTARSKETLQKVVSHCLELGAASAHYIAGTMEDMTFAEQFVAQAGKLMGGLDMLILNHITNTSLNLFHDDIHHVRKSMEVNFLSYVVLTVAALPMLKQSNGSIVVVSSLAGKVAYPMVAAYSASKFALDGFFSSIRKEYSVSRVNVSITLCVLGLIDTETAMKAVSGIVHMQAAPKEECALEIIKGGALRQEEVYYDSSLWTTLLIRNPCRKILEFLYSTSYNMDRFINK

In general, IC50 refers to the concentration needed to halve the response being measured. `CC1(C)OC(N[C@@H](CCO)c2ccccc2F)=NS(=O)(=O)C1c1ccc(CCCN2CCOCC2)cc1` (stereo partly drawn) [Example 110] showed an IC50 of 27 nM.

As to `CC1(C)OC(N[C@@H](CCO)c2ccccc2F)=NS(=O)(=O)C1(C)c1ccccc1` (stereo partly drawn) [Compound 48, (S)-3-(2-Fluorophenyl)-3-(5,6,6-trimethyl-4,4-dioxo-5-phenyl-5,6-dihydro-4H-4lambda6-[1,4,3]oxathiazin-2-ylamino)propan-1-ol], the IC50 came out at 5 nM.

Regarding `CC1(C)OC(N[C@@H](CCO)c2ccccc2)=NS(=O)(=O)C1(C)c1cccc(-c2ccccc2)c1` (stereo partly drawn) [Example 72, (S)-3-(5-Biphenyl-3-yl-5,6,6-trimethyl-4,4-dioxo-5,6-dihydro-4H-4lambda6-[1,4,3]oxathiazin-2-ylamino)-3-phenyl-propan-1-ol], the half-inhibitory concentration (IC50) was 46 nM.

Take `C[C@H](NC1=NS(=O)(=O)C(c2ccc(-c3cccc(C(N)=O)c3)nc2)C(C)(C)O1)c1ccccc1F` (stereo partly drawn) [Example 176, 3-(5-{2-[(S)-1-(2-fluor-phenyl)-ethylamino]-6,6-odimethyl-4,4-dioxo-5,6-dihydro-4H-4lambda6-[1,4,3]oxathiazin-5-yl}-pyridin-2-yl)-benzamide]: the IC50 stood at 6 nM.

Compound `C[C@H](NC1=NS(=O)(=O)C(C)(c2cccc(-c3cncnc3)c2)C(C)(C)O1)c1ccccc1F` (stereo partly drawn) [Compound 41, [(S)-1-(2-Fluorophenyl)ethyl]-[5,6,6-trimethyl-4,4-dioxo-5-(3-pyrimidin-5-ylphenyl)-5,6-dihydro-4H-4lambda6-[1,4,3]oxathiazin-2-yl]amine] had an IC50 of 10 nM.

Regarding `CC1(C)OC(N[C@@H](CCO)c2ccccc2)=NS(=O)(=O)C1(C)c1ccc(-c2ccccc2)cc1` (stereo partly drawn) [Example 54, (S)-3-(5-Biphenyl-4-yl-5,6,6-trimethyl-4,4-dioxo-5,6-dihydro-4H-4lambda6-[1,4,3]oxathiazin-2-ylamino)-3-phenyl-propan-1-ol], the midpoint of inhibition, the IC50, lay at 9 nM.

As to `CC1(C)OC(N[C@@H](CCO)c2ccccc2F)=NS(=O)(=O)C1(C)c1cccc(N2CCCC2)c1` (stereo partly drawn) [Compound 45, (S)-3-(2-Fluorophenyl)-3-[5,6,6-trimethyl-4,4-dioxo-5-(3-pyrrolidin-1-ylphenyl)-5,6-dihydro-4H-4lambda6-[1,4,3]oxathiazin-2-ylamino]propan-1-ol], inhibition was half-maximal at 11 nM (IC50).

Regarding `C[C@H](NC1=NS(=O)(=O)C(c2ccc(-c3ccc(C(N)=O)cc3)cc2)C(C)(C)O1)c1ccccc1F` (stereo partly drawn) [Example 157, 4′-{2-[(S)-1-(2-fluorophenyl)-ethylamino]-6,6-dimethyl-4,4-dioxo-5,6-dihydro-4H-4lambda6-[1,4,3]oxathiazin-5-yl}-biphenyl-4-carboxamide], the IC50 is 20 nM.

Compound `CN1CCN(CCc2ccc(C3C(C)(C)OC(N[C@@H](CCO)c4ccccc4F)=NS3(=O)=O)cc2)CC1` (stereo partly drawn) [Example 148, (S)-3-(6,6-Dimethyl-5-{4-[2-(4-methyl-piperazin-1-yl)-ethyl]-phenyl}-4,4-dioxo-5,6-dihydro-4H-4lambda6-[1,4,3]oxathiazin-2-ylamino)-3-(2-fluoro-phenyl)-propan-1-ol] showed a concentration for half-maximal inhibition (IC50) of 144 nM.

As to `CN(CCO)CCCc1ccc(C2C(C)(C)OC(N[C@@H](CCO)c3ccccc3F)=NS2(=O)=O)cc1` (stereo partly drawn) [Example 122], the IC50 came to 35 nM.

As for `CC1(C)OC(N[C@@H](CCO)c2ccccc2F)=NS(=O)(=O)C1c1cccnc1` (stereo partly drawn) [Example 161, (S)-3-(6,6-Dimethyl-4,4-dioxo-5-pyridin-3-yl-5,6-dihydro-4H-4lambda6-[1,4,3]oxathiazin-2-ylamino)-3-(2-fluorophenyl)-propan-1-ol], inhibition was half-maximal at 11 nM (IC50).

`CC1(C)OC(N[C@@H](CCO)c2ccccc2F)=NS(=O)(=O)C1c1ccc(C2CCN(C(C)(C)C)CC2)cc1` (stereo partly drawn) [Example 151, (S)-3-{5-[4-(1-tert-Butyl-piperidin-4-yl)-phenyl]-6,6-dimethyl-4,4-dioxo-5,6-dihydro-4H-4lambda6-[1,4,3]oxathiazin-2-ylamino}-3-(2-fluorophenyl)-propan-1-ol] showed an IC50 of 34 nM.

On to `COc1cccc(-c2ccc(C3C(C)(C)OC(N[C@@H](CCO)c4ccccc4F)=NS3(=O)=O)cc2)c1` (stereo partly drawn) [Example 86], for which it took 10 nM to reach half-maximal inhibition (IC50).

As to `CN1CCN(c2ncc(-c3ccc(C4C(C)(C)OC(N[C@@H](CCO)c5ccccc5F)=NS4(=O)=O)cc3)cn2)CC1` (stereo partly drawn) [Example 125, (S)-3-(6,6-Dimethyl-5-{4-[2-(4-methyl-piperazin-1-yl)-pyrimidin-5-yl]-phenyl}-4,4-dioxo-5,6-dihydro-4H-4lambda6-[1,4,3]oxathiazin-2-ylamino)-3-(2-fluorophenyl)-propan-1-ol], the IC50 came to 4 nM.

Compound `CC1(C)OC(N[C@@H](CCO)c2ccccc2)=NS(=O)(=O)C1c1cccc(Cl)c1` (stereo partly drawn) [Example 20, (S)-3-[5-(3-Chloro-phenyl)-6,6-dimethyl-4,4-dioxo-5,6-dihydro-4H-4lambda6-[1,4,3]oxathiazin-2-ylamino]-3-phenyl-propan-1-ol] displayed a 50% inhibitory concentration (IC50) of 21 nM.

`CC1(C)OC(N[C@@H](CCO)c2cccc(Cl)c2)=NS(=O)(=O)C1c1ccc(-c2ccccc2)cc1` (stereo partly drawn) [Example 89, (S)-3-(5-Biphenyl-4-yl-6,6-dimethyl-4,4-dioxo-5,6-dihydro-4H-4lambda6-[1,4,3]oxathiazin-2-ylamino)-3-(3-chloro-phenyl)-propan-1-ol]: the IC50 amounted to 21 nM.

The compound `CC(C)(C)c1ccc(C2(C)C(C)(C)OC(N[C@@H](CCO)c3ccccc3F)=NS2(=O)=O)cc1` (stereo partly drawn) [Compound 61, (S)-3-[5-(4-tert-Butylphenyl)-5,6,6-trimethyl-4,4-dioxo-5,6-dihydro-4H-4lambda6-[1,4,3]oxathiazin-2-ylamino]-3-(2-fluorophenyl)propan-1-ol] had an IC50 of 14 nM.

For `CC1(C)OC(N[C@@H](CCO)c2ccccc2F)=NS(=O)(=O)C1c1ccc(-c2ccccc2)nc1` (stereo partly drawn) [Example 165, (S)-3-[6,6-Dimethyl-4,4-dioxo-5-(6-phenyl-pyridin-3-yl)-5,6-dihydro-4H-4lambda6-[1,4,3]oxathiazin-2-ylamino]-3-(2-fluorophenyl)-propan-1-ol], the midpoint of inhibition, the IC50, lay at 7 nM.

For `CNCCCc1ccc(C2C(C)(C)OC(N[C@@H](CCO)c3ccccc3F)=NS2(=O)=O)cc1` (stereo partly drawn) [Example 117, (S)-3-{6,6-Dimethyl-5-[4-(3-methylamino-propyl)-phenyl]-4,4-dioxo-5,6-dihydro-4H-4lambda6-[1,4,3]oxathiazin-2-ylamino}-3-(2-fluorophenyl)-propan-1-ol], the half-maximal inhibitory concentration (IC50) came to 23 nM.

In turn, `CN1CCN(c2ccc(-c3ccc(C4C(C)(C)OC(N[C@@H](CCO)c5ccccc5F)=NS4(=O)=O)cc3)nc2)CC1` (stereo partly drawn) [Example 154, (S)-3-(6,6-Dimethyl-5-{4-[5-(4-methyl-piperazin-1-yl)-pyridin-2-yl]-phenyl}-4,4-dioxo-5,6-dihydro-4H-4lambda6-[1,4,3]oxathiazin-2-ylamino)-3-(2-fluoro-phenyl)-propan-1-ol] displayed a half-inhibitory concentration (IC50) of 13 nM.

The compound `CC1(C)OC(NC2CCCCC2)=NS(=O)(=O)C1(C)c1ccccc1` (stereo not drawn) [Example 18, Cyclohexyl-(5,6,6-trimethyl-4,4-dioxo-5-phenyl-5,6-dihydro-4H-4lambda6-[1,4,3]oxathiazin-2-yl)-amine] returned a concentration for half-maximal inhibition (IC50) of 36 nM.
